# Experimental data: PMC8793051 (ACS Omega, 2022)
# Assays:
# [1] = system: oligo-1: d(CGCGAATTCGCG)2; assay: UV thermal denaturation; format: binding
# HEK = assay: MTT cytotoxicity assay; format: cell-based; details: Homo sapiens, HEK293, 48 h
# NIH3T3 = assay: MTT cytotoxicity assay; format: cell-based; details: Mus musculus, NIH3T3, 48 h
# SR = assay: NCI-60 SRB growth assay; format: cell-based, human; details: for GI50 / CC50: Homo sapiens; for CC50: read-out: LC50
# EKVX = assay: NCI-60 SRB growth assay; format: cell-based, human
# HOP-62 = assay: NCI-60 SRB growth assay; format: cell-based, human; details: for TGI / GI50: HOP-62
# NCI-H23 = assay: NCI-60 SRB growth assay; format: cell-based, human; details: for GI50: NCI-H23; for TGI: NCI–H23
# HCT-116 = assay: NCI-60 SRB growth assay; format: cell-based, human; details: for TGI / GI50: HCT-116; for GI50 / CC50: Homo sapiens; for CC50: HCT-116, read-out: LC50
# HT29 = assay: NCI-60 SRB growth assay; format: cell-based, human; details: for TGI: HT29; for GI50 / CC50: Homo sapiens; for GI50: HT-29; for CC50: HT-29, read-out: LC50
# SF-268 = assay: NCI-60 SRB growth assay; format: cell-based, human; details: for GI50 / CC50: Homo sapiens; for GI50 / TGI: SF-268; for CC50: SF-268, read-out: LC50
# SF-539 = assay: NCI-60 SRB growth assay; format: cell-based, human; details: for GI50 / CC50: Homo sapiens; for GI50 / TGI: SF-539; for CC50: SF-539, read-out: LC50
# U251 = assay: NCI-60 SRB growth assay; format: cell-based, human; details: for GI50 / CC50: Homo sapiens; for GI50: U-251; for CC50: U-251, read-out: LC50; for TGI: U251
# LOX IMVI = assay: NCI-60 SRB growth assay; format: cell-based, human
# MDA-MB-435 = assay: NCI-60 SRB growth assay; format: cell-based, human; details: for GI50 / CC50: Homo sapiens; for GI50 / TGI: MDA-MB-435; for CC50: MDA-MB-435, read-out: LC50
# SK-MEL-28 = assay: NCI-60 SRB growth assay; format: cell-based, human; details: for GI50 / CC50: Homo sapiens; for GI50 / TGI: SK-MEL-28; for CC50: SK-MEL-28, read-out: LC50
# UACC-257 = assay: NCI-60 SRB growth assay; format: cell-based, human; details: for GI50 / CC50: Homo sapiens; for GI50 / TGI: UACC-257; for CC50: UACC-257, read-out: LC50
# IGROV1 = assay: NCI-60 SRB growth assay; format: cell-based, human; details: for GI50: IGROV-1; for TGI: IGROV1
# OVCAR-5 = assay: NCI-60 SRB growth assay; format: cell-based, human; details: for GI50 / CC50: Homo sapiens; for GI50 / TGI: OVCAR-5; for CC50: OVCAR-5, read-out: LC50
# OVCAR-8 = assay: NCI-60 SRB growth assay; format: cell-based, human; details: for GI50 / TGI: OVCAR-8
# A498 = assay: NCI-60 SRB growth assay; format: cell-based, human; details: for TGI / GI50: A498; for GI50 / CC50: Homo sapiens; for CC50: A498, read-out: LC50
# RXF 393 = assay: NCI-60 SRB growth assay; format: cell-based, human; details: for GI50: RXF 393; for TGI: RXF393
# PC-3 = assay: NCI-60 SRB growth assay; format: cell-based, human; details: for GI50 / CC50: Homo sapiens; for GI50 / TGI: PC-3; for CC50: PC-3, read-out: LC50
# MCF7 = assay: NCI-60 SRB growth assay; format: cell-based, human; details: for GI50: Homo sapiens
# T-47D = assay: NCI-60 SRB growth assay; format: cell-based, human; details: for GI50 / CC50: Homo sapiens, T47D; for CC50: read-out: LC50; for TGI: T-47D
# HL-60(TB) = assay: cells; details: Homo sapiens; for GI50: HL-60; for CC50: HL-60, read-out: LC50
# Hu Topo I = biological target: T1, Hu Topo I (Homo sapiens, UniProt P11387); assay: Plasmid DNA relaxation assay
# T1 sequence (P11387 1-765): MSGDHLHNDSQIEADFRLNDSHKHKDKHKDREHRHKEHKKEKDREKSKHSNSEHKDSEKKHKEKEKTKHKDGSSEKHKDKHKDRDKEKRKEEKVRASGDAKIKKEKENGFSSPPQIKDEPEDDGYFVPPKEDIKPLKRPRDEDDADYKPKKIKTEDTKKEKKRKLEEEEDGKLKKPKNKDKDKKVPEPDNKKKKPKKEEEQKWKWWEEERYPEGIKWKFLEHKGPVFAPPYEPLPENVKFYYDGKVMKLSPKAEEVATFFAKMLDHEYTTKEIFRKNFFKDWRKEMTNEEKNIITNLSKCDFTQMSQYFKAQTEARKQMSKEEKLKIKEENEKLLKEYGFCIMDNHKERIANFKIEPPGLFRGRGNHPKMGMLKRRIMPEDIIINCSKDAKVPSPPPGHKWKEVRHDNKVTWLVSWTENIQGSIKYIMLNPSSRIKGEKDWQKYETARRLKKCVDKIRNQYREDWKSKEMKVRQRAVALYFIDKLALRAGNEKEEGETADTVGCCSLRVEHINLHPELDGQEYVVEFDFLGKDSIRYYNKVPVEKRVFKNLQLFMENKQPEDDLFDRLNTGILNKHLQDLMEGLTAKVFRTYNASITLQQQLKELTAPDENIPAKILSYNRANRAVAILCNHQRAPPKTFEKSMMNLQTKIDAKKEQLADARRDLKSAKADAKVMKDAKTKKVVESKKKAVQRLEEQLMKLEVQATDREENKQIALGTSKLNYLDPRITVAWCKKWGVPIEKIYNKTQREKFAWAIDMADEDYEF
compound,measurement,setting,value
"CCCCN1CCN(c2ccc3[nH]c(-c4ccc5[nH]c(-c6ccc(OCC)c(OCC)c6)nc5c4)nc3c2)CC1 [12a, 5-(4-Butylpiperazin-1-yl)-2-(2-(3,4-diethoxyphenyl)-1H-benzo[d]imidazol-5-yl)-1H-benzo[d]imidazole]",ΔTm,[1]; r = 0.5,2 °C
same,Tm,"[1]; r = 0.5, oligo 2.5 μM",56.7 °C
same,Tm,[1]; r = 1,57.7 °C
same,ΔTm,[1]; r = 1,3 °C
same,Tm,[1]; r = 1.5,58.7 °C
same,ΔTm,[1]; r = 1.5,4 °C
same,Tm,[1]; r = 2.0,61.7 °C
same,ΔTm,[1]; r = 2.0,7 °C
same,IC50,HEK,2.7 µM
same,IC50,NIH3T3,8.2 µM
same,TGI,SR,1.19 µM
same,GI50,SR,310 nM
same,CC50,SR,> 100 µM
same,TGI,EKVX,3.18 µM
same,GI50,EKVX; Homo sapiens,1380 nM
same,TGI,HOP-62,3.40 µM
same,GI50,HOP-62; Homo sapiens,1810 nM
same,GI50,NCI-H23; Homo sapiens,780 nM
same,TGI,NCI-H23,2.35 µM
same,TGI,HCT-116,1.66 µM
same,GI50,HCT-116,430 nM
same,CC50,HCT-116,4.3 µM
same,TGI,HT29,2.97 µM
same,GI50,HT29,800 nM
same,CC50,HT29,100 µM
same,GI50,SF-268,2660 nM
same,CC50,SF-268,> 100 µM
same,TGI,SF-268,22.0 µM
same,GI50,SF-539,1260 nM
same,CC50,SF-539,5.2 µM
same,TGI,SF-539,2.56 µM
same,GI50,U251,1280 nM
same,CC50,U251,5.65 µM
same,TGI,U251,2.69 µM
same,TGI,LOX IMVI,1.62 µM
same,GI50,LOX IMVI; Homo sapiens,420 nM
same,GI50,MDA-MB-435,1090 nM
same,CC50,MDA-MB-435,5.24 µM
same,TGI,MDA-MB-435,2.39 µM
same,GI50,SK-MEL-28,1010 nM
same,CC50,SK-MEL-28,4.86 µM
same,TGI,SK-MEL-28,2.22 µM
same,GI50,UACC-257,1210 nM
same,CC50,UACC-257,> 100 µM
same,TGI,UACC-257,10.5 µM
same,GI50,IGROV1; Homo sapiens,1150 nM
same,TGI,IGROV1,2.60 µM
same,GI50,OVCAR-5,1900 nM
same,CC50,OVCAR-5,6.08 µM
same,TGI,OVCAR-5,3.40 µM
same,GI50,OVCAR-8; Homo sapiens,890 nM
same,TGI,OVCAR-8,3.06 µM
same,TGI,A498,2.47 µM
same,GI50,A498,1180 nM
same,CC50,A498,5.16 µM
same,GI50,RXF 393; Homo sapiens,1010 nM
same,TGI,RXF 393,2.35 µM
same,GI50,PC-3,1080 nM
same,CC50,PC-3,5.49 µM
same,TGI,PC-3,2.44 µM
same,TGI,MCF7,1.42 µM
same,GI50,MCF7,190 nM
same,GI50,T-47D,1360 nM
same,CC50,T-47D,> 100 µM
same,TGI,T-47D,7.88 µM
same,GI50,HL-60(TB),700 nM
same,CC50,HL-60(TB),67.9 µM
same,IC90,Hu Topo I,152 µM
"CCCN1CCN(c2ccc3[nH]c(-c4ccc5[nH]c(-c6ccc(OCC)c(OCC)c6)nc5c4)nc3c2)CC1 [11a, 2-(2-(3,4-Diethoxyphenyl)-1H-benzo[d]imidazol-5-yl)-5-(4-propylpiperazin-1-yl)-1H-benzo[d]imidazole]",ΔTm,[1]; r = 0.5,3 °C
same,Tm,"[1]; r = 0.5, oligo 2.5 μM",57.7 °C
same,Tm,[1]; r = 1,58.7 °C
same,ΔTm,[1]; r = 1,4 °C
same,Tm,[1]; r = 1.5,60.7 °C
same,ΔTm,[1]; r = 1.5,6 °C
same,Tm,[1]; r = 2.0,62.7 °C
same,ΔTm,[1]; r = 2.0,8 °C
same,IC50,HEK,14.4 µM
same,IC50,NIH3T3,2.3 µM
same,GI50,SR,290 nM
same,CC50,SR,> 100 µM
same,TGI,EKVX,13.3 µM
same,GI50,EKVX; Homo sapiens,1730 nM
same,CC50,"EKVX; Homo sapiens, read-out: LC50",> 100 µM
same,TGI,HOP-62,5.2 µM
same,GI50,HOP-62; Homo sapiens,1980 nM
same,CC50,"HOP-62; Homo sapiens, HOP-62, read-out: LC50",23.4 µM
same,GI50,NCI-H23; Homo sapiens,250 nM
same,CC50,"NCI-H23; Homo sapiens, NCI-H23, read-out: LC50",4.24 µM
same,TGI,NCI-H23,0.7 µM
same,TGI,HCT-116,1.23 µM
same,GI50,HCT-116,240 nM
same,CC50,HCT-116,4.7 µM
same,TGI,HT29,2.3 µM
same,GI50,HT29,450 nM
same,CC50,HT29,> 100 µM
same,GI50,SF-268,1900 nM
same,CC50,SF-268,68.8 µM
same,TGI,SF-268,11.5 µM
same,GI50,SF-539,790 nM
same,CC50,SF-539,4.8 µM
same,TGI,SF-539,2.1 µM
same,GI50,U251,420 nM
same,CC50,U251,4.8 µM
same,TGI,U251,1.8 µM
same,TGI,LOX IMVI,0.44 µM
same,GI50,LOX IMVI; Homo sapiens,200 nM
same,CC50,"LOX IMVI; Homo sapiens, read-out: LC50",960 nM
same,GI50,MDA-MB-435,670 nM
same,CC50,MDA-MB-435,4.5 µM
same,TGI,MDA-MB-435,1.9 µM
same,GI50,SK-MEL-28,910 nM
same,CC50,SK-MEL-28,5.2 µM
same,TGI,SK-MEL-28,2.2 µM
same,GI50,UACC-257,790 nM
same,CC50,UACC-257,9.4 µM
same,TGI,UACC-257,2.8 µM
same,GI50,IGROV1; Homo sapiens,760 nM
same,CC50,"IGROV1; Homo sapiens, IGROV-1, read-out: LC50",37.8 µM
same,TGI,IGROV1,4.1 µM
same,GI50,OVCAR-5,2090 nM
same,CC50,OVCAR-5,15.9 µM
same,TGI,OVCAR-5,5.01 µM
same,GI50,OVCAR-8; Homo sapiens,450 nM
same,CC50,"OVCAR-8; Homo sapiens, OVCAR-8, read-out: LC50",> 100 µM
same,TGI,OVCAR-8,2.16 µM
same,TGI,A498,1.79 µM
same,GI50,A498,470 nM
same,CC50,A498,4.38 µM
same,GI50,RXF 393; Homo sapiens,260 nM
same,CC50,"RXF 393; Homo sapiens, RXF 393, read-out: LC50",3.6 µM
same,TGI,RXF 393,0.9 µM
same,GI50,PC-3,380 nM
same,CC50,PC-3,6.12 µM
same,TGI,PC-3,1.92 µM
same,TGI,MCF7,1.53 µM
same,GI50,MCF7,350 nM
same,GI50,T-47D,910 nM
same,CC50,T-47D,> 100 µM
same,TGI,T-47D,9.11 µM
same,GI50,HL-60(TB),370 nM
same,CC50,HL-60(TB),> 100 µM
same,IC90,Hu Topo I,140 µM
